These results are taken from US9458437B2, “Neuroprotective peptides that inhibit interaction between palmitoyl acyl transferase zinc-finger DHHC type containing 17 (zD17) and c-jun N-terminal kinase (JNK)” (The University of British Columbia, priority 2011, dated 2016).

One assay has as its system neuronal cultures. Description: LDH assay and PI staining, NMDA excitotoxicity-induced neuronal cell death. It counts as cell-based, rat. The conditions noted are these: for excitotoxicity-induced cell death as measured by LDH release and PI staining: pretreatment, NMDA challenge 1 h, 24 h survival. As for the experimental part:
For biochemical studies, neurons were seeded in six-well culture plates with a density of 7.5×10^5 cells per well. For LDH assay and cell death detection, 24-well culture plates were used with a neuron density of 2.5×10^5 cells per well. Neurons of 14-17 days in vitro (DIV) were used for experiments. […] HEK 293 cells were maintained in DMEM (Invitrogen™) supplemented with 10% fetal bovine serum and 1% penicillin/streptomycin. For protein expression in cell lines, cells were transfected with Calcium Phosphate Transfection reagent (Promega™, San Luis Obispo, Calif., USA) and used 24 h later as described previously (Yang et al., 2009). The JNK inhibitor, L-JNKI, was purchased from Alexis Biochemicals™ (San Diego, Calif.). Thrombin was obtained from BIOPUR™ (Bubendorf, Switzerland). Other assay reagents without indication were obtained from Sigma™.
Neuronal cultures were challenged with indicated concentrations of NMDA for 1 h, followed by 24 h survival. The release of lactate dehydrogenase (LDH) was measured with an in vitro toxicology assay kit (Sigma™) according to the manufacturer's instructions. Spectrophotometric measurement was performed on a Multilabel Plate Reader (Envision™ 2103, Perkin Elmer™). The LDH reading represents the primary absorbance at a wavelength of 490 nm after subtraction of background absorbance at 690 nm. LDH readings were then converted to a percentage of neuronal death by dividing by the readings from cultures incubated with 1% triton for 15 min representing total LDH. Following the LDH assay, propidium iodide (PI) (Sigma™) was added to the medium at a final concentration of 1 μg/ml and neurons were stained for 30 min at 30° C. After fixation with 4% paraformaldehyde, neurons were washed with 1×PBS and stained with Hoechst™ 33342 (Sigma™). The fluorescence of PI and Hoechst™ were examined with laser microscopy and analyzed with ImageJ™.
In general terms: Release of lactate dehydrogenase indicates damage to the cell membrane.

Assay [1] deals with middle cerebral artery occlusion (MCAo). As to the kind of experiment: transient MCAo in SD rats, adhesive removal test (ART). In kind it is in vivo, Sprague-Dawley rat. How it is done:
Adult male Sprague-Dawley (SD) rats weighing 250-290 g were employed for transient middle cerebral artery occlusion. Rats were anaesthetized with 5% isofluorane and maintained with 2% isofluorane in 70% N2O and 30% O2 using a face mask. 5 mg/kg ketoprofen was given pre-surgery to block pain. Rectal temperature was maintained at 37° C. during surgery with a homeothermic blanket system (Harvard Apparatus™, Holliston, Mass.). The scalp was incised at the midline and the skull was exposed. The skull was thinned with a dental drill at a region ipsilateral to the expected ischemia zone (2 mm posterior and 5 mm lateral from the bregma). A laser probe of the Doppler flowmeter (Perimed™, Jäffälla, Sweden) was placed at this location during surgery to detect cerebral blood flow (CBF) (Nagal et al., 2010). Transient MCAo was induced using a method of intraluminal vascular occlusion described elsewhere (Aarts et al., 2002; Belayev et al., 1996; and Longa et al., 1989). Briefly, a poly-L-lysine coated 3-0 monofilament nylon suture (Harvard Apparatus™, Holliston, Mass.) with a rounded tip was advanced from the left common carotid artery into the internal carotid artery until a sudden drop of CBF was noted, indicating the blockade of the origin of the MCA. The success of induction of ischemia was confirmed by a fall of CBF to less than 25% of baseline level and by neurological assessment scores during MCAo (1 h after the onset). Two hours after MCAo, rats were re-anaesthetized and the suture was removed to allow reperfusion, confirmed by the increase of CBF at the same area.
Peptides were synthesized by PepMetric Technologies™ or GL Biochem™ (Shanghai, China). Peptides were prepared freshly in saline on the day of experiment at a stock concentration of 1 mg/ml. 1 mg/kg peptides were administrated at indicated times (30 min before, 2 h after or 6 h after the onset of ischemia) by a single intravenous injection at rat tails. NIMoEscr or NIMoEsh were injected at 4 h after MCAo onset to randomly chosen rats. For long-term studies, peptides were given 2 h after MCAo onset. Injections of NIMoEscr and NIMoEsh were made, brain damage was assessed and functional evaluations performed in a double-blind manner To examine the delivery of the peptide into the brain, 5 mg/kg FITC-labelled NIMoE or only saline was intravenously injected 1 h before perfusion. The rats were then perfused with PBS followed by fixation solution (4% paraformaldehyde in PBS). Brains were removed, postfixed in fixation solution for 2 h and then soaked in 20% sucrose-PBS buffer at 4° C. for 24 h. After rapid freezing in Tissue-Tek™ embedding medium (Sakura™, Torrance, Calif.) on dry ice, 20 μm sections were cut on a cryostat (Leica™ CM3050, Ontario, Canada) and examined for FITC fluorescence by a laser microscopy (Zeiss™, Axiovert 200).
All animals were tested for neurological function during (1 h after onset) and 24 h after MCAo. Motor, sensory and coordination capacities were evaluated with modified Neurological Severity Scores (NSS) (Watanabe et al., 2004; Bederson et al., 1986). […] Coordination functions were assessed with 3 tests including a foot fault test, edge test and balance beam. Performance in the tests was evaluated on a cumulative scale from 0 to 2 (10 tests), except for two tests (tail suspension and balance beam in which scores ranged from 0 to Sand 0 to 4, respectively). […] The time spent on removing the tape from paw within 2 min was recorded.

Assay [2] shares this test system. As to the kind of experiment: transient MCAo in SD rats, neurological scores. On the set-up: key: summed neurological score, 0 to 27. It counts as in vivo, Sprague-Dawley rat.
For assay [3] the test system is unchanged. Description: transient MCAo in SD rats, adhesive removal test (ART). It counts as in vivo, Sprague-Dawley rat. More on the design: unit not given here. As to conditions: peptide given 4 h after MCAo onset.
[4] abbreviates: peptide given 4 h after MCAo onset, day-1.
The mark [5] stands for this setting: peptide given 4 h after MCAo onset, day-3.
[6] abbreviates: peptide given 4 h after MCAo onset, day-7.
[7] abbreviates: peptide given 4 h after MCAo onset, day-14.

With “HRYRWLTDLLSMVTTPAAPM (NIMoEscr scrambled NIMoE) [negative control peptide resulting from a scrambled NIMoE, reference compound]”, the “excitotoxicity-induced cell death as measured by LDH release and PI staining” value (“excitotoxicity-induced cell death” for short) in the assay with neuronal cultures is reported as “no protective effects”. In addition, in assay [1] (scrambled control peptide group), the “adhesive removal test (ART), contralateral side” value amounted to 10.80 ± 2.06 s. For the same sequence, the neurological scores in assay [2] (22 h after onset of MCAo, scrambled control peptide group) stood at 18.60±1.24; in assay [2] (setting [4]), 19.25±0.80; in assay [2] (setting [5]), 13.63±1.03; in assay [2] (setting [6]) it was 7.13±0.58; in assay [2] (setting [7]) it was 4.38±0.50. Further, the ART in assay [3] (day-1) is given as 12.63±3.14; in assay [3] (day-3) it was 34.13±6.88; in assay [3] (day-7), 59.13±5.67; in assay [3] (day-14), 81.88±4.44.

For the sequence “MTPLMWAAYRTHSVDPTRLL (listed as Homo sapiens) [NIMoE, peptide comprising motif-E of zD17, fused to the cell-membrane transduction domain of HIV-1 Tat for cell experiments]”, the “protection of neurons over NMDA concentrations” value in the assay on neuronal cultures (NMDA 10 μM to 100 μM) is “protected neurons against a broad range of NMDA concentrations”. Besides, the “excitotoxicity-induced cell death” value in the assay with neuronal cultures is “significantly prevented”. For the same sequence, the “adhesive removal test (ART), contralateral side” value worked out at 62.1 ± 8.60 s in assay [1] (injection +2 h), 60.83 ± 8.13 s in assay [1] (injection +4 h) and 48.62 ± 8.24 s in assay [1] (injection −0.5 h).

For “WAAYRTHSVD (listed as Homo sapiens) [NIMoEsh, shorter 10mer of NIMoE, primarily the loop region of motif-E (zD17 196-205)]”, the “excitotoxicity-induced cell death” value in the assay on neuronal cultures is “significantly prevented”. In assay [1] (MCAo rats), the “somatosensory functions in ART” value is “large preservation of somatosensory functions”. Also, the neurological scores is 8.50±0.75 in assay [2] (22 h after onset of MCAo, injection +2 h); 11.20±1.49 in assay [2] (22 h after onset of MCAo, injection +4 h); 8.00±0.72 in assay [2] (22 h after onset of MCAo, injection −0.5 h, scale 0 to 27); 11.43±1.96 in assay [2] (setting [4]); 5.86±1.14 in assay [2] (setting [5]); 1.71±0.47 in assay [2] (setting [6]). Further, the neurological scores in assay [2] (setting [7]) is given as 0.85±0.34. The ART is on record as 52.57±6.82 in assay [3] (day-1), 73.86±9.63 in assay [3] (day-3), 94.86±7.33 in assay [3] (day-7) and 101.43±3.35 in assay [3] (day-14).
